In article PMC6792352, “Limited Chemical Structural Diversity Found to Modulate Thyroid Hormone Receptor in the Tox21 Chemical Library” (Environmental Health Perspectives, 2019) one finds CC50 data, which are given here for 32 compounds.

Structures are written as SMILES. Where a name gives a salt, the structure may show the parent alone. Where only a bound is given, the exact number is not on record here.

The nature of the data set: in vitro. The settings on record: rat, gh3-tre-luc cells.

`O=c1cc(-c2ccccc2)oc2ccccc12` [Flavone] had a CC50 at 24 h (AC50 (uM) modified / 1000) of more than 90 µM.

For `CN1C(=O)COc2c(C(=O)NC3CN4CCC3CC4)cc(Cl)cc21` (centres unmarked) [Azasetron], the midpoint of cytotoxicity (AC50 (uM) modified / 1000), the CC50 at 24 h, lay at 42.1 µM.

`O=C(c1ccc(O)cc1)c1ccc(Cl)cc1` [4-Hydroxy-4'-chlorobenzophenone] displayed a CC50 at 24 h (AC50 (uM) modified / 1000) of more than 90 µM.

Under “AC50 (uM) modified / 1000”, `CN1CCC(OC(=O)C(Oc2ccc(Cl)cc2)Oc2ccc(Cl)cc2)CC1` [Lifibrate] had a cytotoxic concentration (CC50) at 24 h of 27.6 µM.

Where the note is “AC50 (uM) modified / 1000”, `Nc1cc(C(=O)O)ccc1Cl` [3-Amino-4-chlorobenzoic acid] came in with a CC50 at 24 h of more than 90 µM.

For the compound `Oc1cc(Cl)ccc1Cl` [2,5-Dichlorophenol], for the setting “AC50 (uM) modified / 1000”, the CC50 at 24 h is more than 90 µM.

The compound `CCC(C)OC(C)CC` (centres unmarked) [Bis(2-butyl) ether] returned a CC50 at 24 h (AC50 (uM) modified / 1000) of more than 100 µM.

For the compound `Nc1c2ccccc2nc2ccccc12` [9-Aminoacridine, monohydrochloride, monohydrate], the 50% cytotoxic concentration (CC50) at 24 h (AC50 (uM) modified / 1000) is more than 90 µM.

Consider `N[C@@H](COP(=O)(O)O)C(=O)O` [Dexfosfoserine], for which the CC50 at 24 h (AC50 (uM) modified / 1000) is more than 50 µM.

`FC(F)(F)C(F)(F)C(F)(F)C(F)(F)C(F)(F)C(F)(F)C(F)(F)C(F)(F)Br` [1-Bromoheptadecafluorooctane] gave a CC50 at 24 h (AC50 (uM) modified / 1000) of more than 50 µM.

With `O=P(O)(Oc1ccccc1)Oc1ccccc1` [Diphenyl phosphate], the CC50 at 24 h (AC50 (uM) modified / 1000, Tox21_110001=Tox21_303401, viability, 1 nM T3 present, 24 h) is more than 90 µM.

`CC1NCCOC1c1ccccc1` (centres unmarked) [Phenmetrazine hydrochloride] showed a CC50 at 24 h (AC50 (uM) modified / 1000, Tox21_110001=Tox21_112166, viability, 1 nM T3 present, 24 h) of more than 50 µM.

Compound `Clc1cccc(SC2CCNCC2)n1` [Anpirtoline] showed a CC50 at 24 h (AC50 (uM) modified / 1000) of more than 50 µM.

Consider `O=C(c1ccccc1)c1cccc(O)c1` [3-Hydroxybenzophenone], for which the CC50 at 24 h (AC50 (uM) modified / 1000) was more than 90 µM.

Turning to `O=C(O)c1c(Cl)cccc1Cl` [2,6-Dichlorobenzoic acid], the CC50 at 24 h (AC50 (uM) modified / 1000) was more than 90 µM.

Consider `c1ccc2cc3c4ccccc4c4ccccc4c3cc2c1` [Dibenz[a,c]anthracene], for which, under “AC50 (uM) modified / 1000”, the half-maximal cytotoxic concentration (CC50) at 24 h is more than 90 µM.

For `CC1CC(=O)CC(C)(C)C1` (centres unmarked) [3,3,5-Trimethylcyclohexanone], under “AC50 (uM) modified / 1000”, the CC50 at 24 h is more than 90 µM.

On to `O=C(O)c1cc(C(=O)O)cc([N+](=O)[O-])c1` [5-Nitroisophthalic acid], for which the CC50 at 24 h (AC50 (uM) modified / 1000) is more than 90 µM.

Turning to `CNC(=O)N(C)c1nnc(C(C)(C)C)s1` [Tebuthiuron], the cytotoxic concentration (CC50) at 24 h (AC50 (uM) modified / 1000, Tox21_110001=Tox21_201451, viability, 1 nM T3 present, 24 h) is more than 90 µM.

In turn, `CC(C)c1c(CN(C)C(C)Cc2ccccc2)n(C)n(-c2ccccc2)c1=O` (centres unmarked) [Famprofazone] showed a CC50 at 24 h (AC50 (uM) modified / 1000) of more than 20 µM.

As for `CN(CC(=O)N1CCOCC1)Cc1c(Cl)cccc1NC(=O)c1ccccc1` [Fominoben hydrochloride], the half-maximal cytotoxic concentration (CC50) at 24 h (AC50 (uM) modified / 1000) was more than 50 µM.

The compound `CC(=O)c1cc2c(cc1C)C(C)(C)C(C)CC2(C)C` (centres unmarked) [6-Acetyl-1,1,2,4,4,7-hexamethyltetralin] had a 50% cytotoxic concentration (CC50) at 24 h (AC50 (uM) modified / 1000, Tox21_110001=Tox21_301256, viability, 1 nM T3 present, 24 h) of 45.6 µM.

Compound `OCc1cccc(Oc2ccccc2)c1` [3-Phenoxybenzenemethanol] registered a CC50 at 24 h (AC50 (uM) modified / 1000) of more than 90 µM.

As to `CCOC(=O)c1ccc(I)cc1` [Ethyl 4-iodobenzoate], the CC50 at 24 h (AC50 (uM) modified / 1000) is more than 90 µM.

`c1ccc(Nc2ccccc2)cc1` [Diphenylamine]: the CC50 at 24 h (AC50 (uM) modified / 1000) is more than 90 µM.

Regarding `Cc1cc(-n2c(=O)[nH]c(=O)n(C)c2=O)ccc1Oc1ccc(S(=O)(=O)C(F)(F)F)cc1` [Toltrazuril sulfone], under “AC50 (uM) modified / 1000”, the half-maximal cytotoxic concentration (CC50) at 24 h is more than 50 µM.

Where the note is “AC50 (uM) modified / 1000”, `CC(C)(O)C(Cl)(Cl)Cl` [1,1,1-Trichloro-2-methyl-2-propanol] had a cytotoxic concentration (CC50) at 24 h of more than 50 µM.

`CC(=O)O[C@H]1C[C@@]2(C)[C@@H](C[C@@H](O)[C@H]3[C@@]4(C)CC[C@@H](O)[C@@H](C)[C@@H]4CC[C@@]32C)/C1=C(\CCC=C(C)C)C(=O)O` [Fusidate sodium] returned a 50% cytotoxic concentration (CC50) at 24 h (AC50 (uM) modified / 1000) of more than 50 µM.

On to `CC(C)(C)N(NC(=O)c1ccc(Cl)cc1)C(=O)c1ccccc1` [Halofenozide], for which the CC50 at 24 h (AC50 (uM) modified / 1000) stood at 4.99 µM.

For `Cc1cc2c(s1)Nc1ccccc1N=C2N1CCN(C)CC1` [Olanzapine], for the setting “AC50 (uM) modified / 1000”, the CC50 at 24 h was 15.7 µM.

`CC(C)C1OCCN1CCOC(=O)NCCCCCCNC(=O)OCCN1CCOC1C(C)C` (centres unmarked) [Bis{2-[2-(propan-2-yl)-1,3-oxazolidin-3-yl]ethyl} hexane-1,6-diylbiscarbamate] yielded a half-maximal cytotoxic concentration (CC50) at 24 h (AC50 (uM) modified / 1000) of more than 90 µM.

In turn, `CN(C)CCOC1=Cc2ccccc2Sc2ccc(Cl)cc21` [Zotepine] had a CC50 at 24 h (AC50 (uM) modified / 1000) of 6.89 µM.

What is called CC50 is the concentration at which the toxic effect on the cells reaches its halfway point.
